Assay results published in patent publication US20250098679A1, “HERBICIDAL PYRIDONE DERIVATIVES” (SYNGENTA CROP PROTECTION AG, priority 2021, published 2025).

Key:
Type in all cases: in vivo
Details in all cases: evaluated after 13 days
[1] = system: Echinochloa crus-galli (ECHCG); experiment: Post-emergence Test, Echinochloa crus-galli (ECHCG); parameters: key to percentage damage caused to the plant, ECHCG (five-point scale): 5=81-100%, 4=61-80%, 3=41-60%, 2=21-40%, 1=0-20% damage
Method in brief: (§1)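 Sown pots in a glasshouse (24/16 °C day/night, 14 h light, 65% humidity) were sprayed with compound in acetone/water (50:50) with 0.5% Tween 20, at 1000 g/ha unless otherwise stated. Damage was assessed 13 days after spraying and scored 1–5 (5=81-100%, 1=0-20%).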

Setaria faberi (SETFA) [2] = experiment: Post-emergence Test, Setaria faberi (SETFA); parameters: key to percentage damage caused to the plant, SETFA (five-point scale): 5=81-100%, 4=61-80%, 3=41-60%, 2=21-40%, 1=0-20% damage
Method in brief: as §1

[3] = system: Ipomoea hederacea (IPOHE); experiment: Post-emergence Test, Ipomoea hederacea (IPOHE); parameters: key to percentage damage caused to the plant, IPOHE (five-point scale): 5=81-100%, 4=61-80%, 3=41-60%, 2=21-40%, 1=0-20% damage
Method in brief: as §1

Zea mays (ZEAMX) [4] = experiment: Pre-emergence Test, Zea mays (ZEAMX)
[5] = system: Amaranthus retoflexus (AMARE); experiment: Post-emergence Test, Amaranthus retoflexus (AMARE); parameters: key to percentage damage caused to the plant, AMARE (five-point scale): 5=81-100%, 4=61-80%, 3=41-60%, 2=21-40%, 1=0-20% damage
Method in brief: as §1

Zea mays (ZEAMX) [6] = experiment: Post-emergence Test, Zea mays (ZEAMX); parameters: key to percentage damage caused to the plant, ZEAMX (five-point scale): 5=81-100%, 4=61-80%, 3=41-60%, 2=21-40%, 1=0-20% damage
Method in brief: as §1

[7] = system: Amaranthus palmeri (AMAPA); experiment: Post-emergence Test, Amaranthus palmeri (AMAPA); parameters: key: 5=81-100%, 4=61-80%, 3=41-60%, 2=21-40%, 1=0-20% damage
Method in brief: as §1

[8] = system: Ipomoea hederacea (IPOHE); experiment: Pre-emergence Test, Ipomoea hederacea (IPOHE)
[9] = system: Amaranthus retoflexus (AMARE); experiment: Pre-emergence Test, Amaranthus retoflexus (AMARE)
Setaria faberi (SETFA) [10] = experiment: Pre-emergence Test, Setaria faberi (SETFA)
[11] = system: Amaranthus palmeri (AMAPA); experiment: Pre-emergence Test, Amaranthus palmeri (AMAPA)
[12] = system: Echinochloa crus-galli (ECHCG); experiment: Pre-emergence Test, Echinochloa crus-galli (ECHCG)

| Structure (SMILES) | percentage damage caused to the plant, ECHCG (five-point scale) ([1]; 250 g/Ha) | percentage damage caused to the plant, ECHCG (five-point scale) ([1]; 1000 g/ha) | percentage damage caused to the plant, SETFA (five-point scale) (Setaria faberi (SETFA) [2]; 250 g/Ha) | percentage damage caused to the plant, SETFA (five-point scale) (Setaria faberi (SETFA) [2]; 1000 g/ha) | percentage damage caused to the plant, IPOHE (five-point scale) ([3]; 250 g/Ha) | percentage damage caused to the plant, IPOHE (five-point scale) ([3]; 1000 g/ha) | Pre-emergence Test ZEAMX, percentage damage caused to the plant (five-point scale) (Zea mays (ZEAMX) [4]; 250 g/Ha (*)) | Pre-emergence Test ZEAMX, percentage damage caused to the plant (five-point scale) (Zea mays (ZEAMX) [4]; 1000 g/ha) | percentage damage caused to the plant, AMARE (five-point scale) ([5]; 250 g/Ha) | percentage damage caused to the plant, AMARE (five-point scale) ([5]; 1000 g/ha) | percentage damage caused to the plant, ZEAMX (five-point scale) (Zea mays (ZEAMX) [6]; 250 g/Ha) | percentage damage caused to the plant, ZEAMX (five-point scale) (Zea mays (ZEAMX) [6]; 1000 g/ha) | percentage damage caused to the plant, AMAPA (five-point scale) ([7]; 250 g/Ha) | percentage damage caused to the plant, AMAPA (five-point scale) ([7]; 1000 g/ha) | Pre-emergence Test IPOHE, percentage damage caused to the plant (five-point scale) ([8]; 250 g/Ha (*)) | Pre-emergence Test IPOHE, percentage damage caused to the plant (five-point scale) ([8]; 1000 g/ha) | Pre-emergence Test AMARE, percentage damage caused to the plant (five-point scale) ([9]; 1000 g/ha) | Pre-emergence Test SETFA, percentage damage caused to the plant (five-point scale) (Setaria faberi (SETFA) [10]; 1000 g/ha) | Pre-emergence Test AMAPA, percentage damage caused to the plant (five-point scale) ([11]; 1000 g/ha) | Pre-emergence Test ECHCG, percentage damage caused to the plant (five-point scale) ([12]; 1000 g/ha) | also measured |
| --- | --- | --- | --- | --- | --- | --- | --- | --- | --- | --- | --- | --- | --- | --- | --- | --- | --- | --- | --- | --- | --- |
| CCCOc1ccn(Cc2cc(=O)c(C(=O)O)c(-c3ccc(Cl)c(Cl)c3)n2CC)n1 [Compound 160, 2-(3,4-dichlorophenyl)-1-ethyl-4-oxo-6-[(3-propoxypyrazol-1-yl)methyl]pyridine-3-carboxylic acid] | 2 (2=21-40%) | 4 (4=61-80%) | 2 (2=21-40%) | 4 (4=61-80%) | 3 (3=41-60%) | 3 (3=41-60%) | 0 | 3 (3=41-60%) | 0 | 1 (1=0-20%) | 1 (1=0-20%) | 4 (4=61-80%) | 0 | 1 (1=0-20%) | 2 (2=21-40%) | 2 (2=21-40%) | 1 (1=0-20%) | 5 (5=81-100%) | 0 | 5 (5=81-100%) | Pre-emergence Test AMARE, percentage damage caused to the plant (five-point scale) ([9]; 250 g/Ha (*)): 0; Pre-emergence Test SETFA, percentage damage caused to the plant (five-point scale) (Setaria faberi (SETFA) [10]; 250 g/Ha (*)): 2 (2=21-40%); Pre-emergence Test AMAPA, percentage damage caused to the plant (five-point scale) ([11]; 250 g/Ha (*)): 0; Pre-emergence Test ECHCG, percentage damage caused to the plant (five-point scale) ([12]; 250 g/Ha (*)): 2 (2=21-40%) |
| CCn1c(Cn2ccc(OC)n2)cc(=O)c(C(=O)O)c1-c1ccc(Cl)c(Cl)c1 [Compound 38, 2-(3,4-dichlorophenyl)-1-ethyl-6-[(3-methoxypyrazol-1-yl)methyl]-4-oxo-pyridine-3-carboxylic acid] | 3 (3=41-60%) | 4 (4=61-80%) | 4 (4=61-80%) | 4 (4=61-80%) | 4 (4=61-80%) | 3 (3=41-60%) | – | 5 (5=81-100%) | 2 (2=21-40%) | 4 (4=61-80%) | 2 (2=21-40%) | 4 (4=61-80%) | 1 (1=0-20%) | 4 (4=61-80%) | – | 4 (4=61-80%) | 2 (2=21-40%) | 5 (5=81-100%) | 3 (3=41-60%) | 5 (5=81-100%) | – |
| CCn1c(Cn2ccc(Cl)n2)cc(=O)c(C(=O)O)c1-c1ccc(F)c(Cl)c1 [Compound 28, 2-(3-chloro-4-fluoro-phenyl)-6-[(3-chloropyrazol-1-yl)methyl]-1-ethyl-4-oxo-pyridine-3-carboxylic acid] | 3 (3=41-60%) | 4 (4=61-80%) | 4 (4=61-80%) | 4 (4=61-80%) | 4 (4=61-80%) | 1 (1=0-20%) | – | 0 | 1 (1=0-20%) | 0 | 0 | 4 (4=61-80%) | 1 (1=0-20%) | 2 (2=21-40%) | – | 1 (1=0-20%) | 0 | 5 (5=81-100%) | 0 | 5 (5=81-100%) | – |
| CCn1c(Cn2cnc(OC)n2)cc(=O)c(C(=O)O)c1-c1ccc(Cl)c(Cl)c1 [Compound 44, 2-(3,4-dichlorophenyl)-1-ethyl-6-[(3-methoxy-1,2,4-triazol-1-yl)methyl]-4-oxo-pyridine-3-carboxylic acid] | – | 1 (1=0-20%) | – | 1 (1=0-20%) | – | 2 (2=21-40%) | – | 0 | – | 0 | – | 1 (1=0-20%) | – | 3 (3=41-60%) | – | 1 (1=0-20%) | 2 (2=21-40%) | 1 (1=0-20%) | 3 (3=41-60%) | 2 (2=21-40%) | – |
| CCn1c(Cn2ccc(C(F)(F)F)n2)cc(=O)c(C(=O)O)c1-c1ccc(Cl)c(F)c1 [Compound 30, 2-(4-chloro-3-fluoro-phenyl)-1-ethyl-4-oxo-6-[[3-(trifluoromethyl)pyrazol-1-yl]methyl]pyridine-3-carboxylic acid] | 3 (3=41-60%) | 4 (4=61-80%) | 4 (4=61-80%) | 5 (5=81-100%) | 4 (4=61-80%) | 2 (2=21-40%) | – | 5 (5=81-100%) | 1 (1=0-20%) | 4 (4=61-80%) | 3 (3=41-60%) | 4 (4=61-80%) | 0 | 2 (2=21-40%) | – | 4 (4=61-80%) | 0 | 5 (5=81-100%) | 1 (1=0-20%) | 5 (5=81-100%) | – |
| CCn1c(Cn2ccc(Cl)n2)cc(=O)c(C(=O)O)c1-c1ccc(C#N)c(Cl)c1 [Compound 119, 2-(3-chloro-4-cyano-phenyl)-6-[(3-chloropyrazol-1-yl)methyl]-1-ethyl-4-oxo-pyridine-3-carboxylic acid] | 1 (1=0-20%) | 4 (4=61-80%) | 1 (1=0-20%) | 4 (4=61-80%) | 1 (1=0-20%) | 2 (2=21-40%) | 0 | 0 | 1 (1=0-20%) | 0 | 0 | 0 | 0 | – | 0 | 0 | 0 | 4 (4=61-80%) | 1 (1=0-20%) | 3 (3=41-60%) | Pre-emergence Test AMARE, percentage damage caused to the plant (five-point scale) ([9]; 250 g/Ha (*)): 0; Pre-emergence Test SETFA, percentage damage caused to the plant (five-point scale) (Setaria faberi (SETFA) [10]; 250 g/Ha (*)): 3 (3=41-60%); Pre-emergence Test AMAPA, percentage damage caused to the plant (five-point scale) ([11]; 250 g/Ha (*)): 1 (1=0-20%); Pre-emergence Test ECHCG, percentage damage caused to the plant (five-point scale) ([12]; 250 g/Ha (*)): 1 (1=0-20%) |
